# Measured values from patent US12239713B2, “Degradable polyethylene glycol conjugate” (NOF CORPORATION, priority 2018, dated 2025).
# Where no end group is shown, it is not given here.
# Tested on: blood calcium concentration
# Assay: Evaluation of physiological activity of PEGylated salmon calcitonin (blood calcium concentration)
# Assay type: in vivo, Mouse Balb/c
# Details: sCT dose 40 μg/kg, blood at 1, 3, 6, 24 hr, compared to saline (PBS) group, FIG. 10
# Experimental: The method for evaluating the physiological activity of a bio-related substance bonded to a degradable polyethylene glycol derivative is not particular limited. For example, when the bio-related substance is insulin, blood sugar concentration is measured, and when it is calcitonin, blood calcium concentration is measured, by periodically collecting blood from the animal that received administration and measuring the substance in the blood by using an appropriate analytical instrument, and the like, based on which the evaluation can be performed. Specifically, in the case of insulin, a glucose measurement kit is used to monitor a decrease in glucose concentration after administration and, in the case of calcitonin, a decrease in calcium concentration after administration is monitored using a calcium measurement kit, based on which the evaluation can be performed.
# The physiological activities of 4 groups of ME-200GLFG (SEQ ID NO: 4) (L)-200-sCT which is SCT to which degradable polyethylene glycol derivative with a molecular weight of 40,000 is bonded and obtained in Example 16, methoxy PEG 40 kDa-sCT bonded to nondegradable methoxy PEG 40 kDa, unmodified sCT, and saline were comparatively evaluated in animal experiments. […]
substance,measurement,value
salmon calcitonin (CSNLSTCVLGKLSQELHKLQTYPRTNTGSGTP; ends and bridges not checked; cysteine pairing not given here) [Unmodified sCT],calcium concentration in blood (in words),showed an increase in calcium concentration 6 hr after administration
